In ChEMBL document CHEMBL4507268 (2021):

Key:
SN12C = assay: Proliferation assay: SN12C (renal cell carcinoma); assay type: functional, cell-based; settings: Homo sapiens
[1] = test system: Tyrosine-protein kinase ABL1 (Homo sapiens), P00519 [E255K]; settings: Compound concentration 1000.0 nM
[2] = test system: Tyrosine-protein kinase ABL1 (Homo sapiens), P00519 [F317L]; settings: Compound concentration 1000.0 nM
[3] = biological target: T1, Activin receptor type-1B (Homo sapiens) (UniProt P36896); settings: Compound concentration 1000.0 nM
T1 sequence (whole entry): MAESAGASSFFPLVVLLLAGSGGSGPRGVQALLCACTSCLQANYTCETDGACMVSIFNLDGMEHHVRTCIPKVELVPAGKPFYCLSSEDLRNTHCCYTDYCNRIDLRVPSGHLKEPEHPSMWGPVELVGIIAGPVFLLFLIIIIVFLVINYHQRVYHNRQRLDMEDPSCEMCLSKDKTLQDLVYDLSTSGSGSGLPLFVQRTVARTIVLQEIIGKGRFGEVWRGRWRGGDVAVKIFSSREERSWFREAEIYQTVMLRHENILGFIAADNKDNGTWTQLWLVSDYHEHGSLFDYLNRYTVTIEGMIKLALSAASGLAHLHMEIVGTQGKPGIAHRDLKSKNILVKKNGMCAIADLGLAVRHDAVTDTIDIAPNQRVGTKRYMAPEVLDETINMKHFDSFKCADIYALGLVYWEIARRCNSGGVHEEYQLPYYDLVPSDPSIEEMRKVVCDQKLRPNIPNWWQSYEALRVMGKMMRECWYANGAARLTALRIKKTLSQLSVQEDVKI

[4] = biological target: Calcium/calmodulin-dependent protein kinase type 1D (Homo sapiens) (UniProt Q8IU85); settings: Compound concentration 1000.0 nM
[5] = biological target: Calcium/calmodulin-dependent protein kinase type II subunit gamma (Homo sapiens) (UniProt Q13555); settings: Compound concentration 1000.0 nM
[6] = test system: Epidermal growth factor receptor (Homo sapiens), P00533 [G719S]; settings: Compound concentration 1000.0 nM
[7] = biological target: Ephrin type-A receptor 7 (Homo sapiens) (UniProt Q15375); settings: Compound concentration 1000.0 nM
[8] = biological target: Mitogen-activated protein kinase 7 (Homo sapiens) (UniProt Q13164); settings: Compound concentration 1000.0 nM
[9] = biological target: Tyrosine-protein kinase Fes/Fps (Homo sapiens) (UniProt P07332); settings: Compound concentration 1000.0 nM
[10] = test system: Mast/stem cell growth factor receptor Kit (Homo sapiens), P10721 [V559D,T670I]; settings: Compound concentration 1000.0 nM
[11] = biological target: Mitogen-activated protein kinase kinase kinase kinase 5 (Homo sapiens) (UniProt Q9Y4K4); settings: Compound concentration 1000.0 nM
[12] = biological target: Serine/threonine-protein kinase MARK1 (Homo sapiens) (UniProt Q9P0L2); settings: Compound concentration 1000.0 nM
[13] = biological target: MAP kinase-interacting serine/threonine-protein kinase 1 (Homo sapiens) (UniProt Q9BUB5); settings: Compound concentration 1000.0 nM
[14] = biological target: T2, Serine/threonine-protein kinase Nek3 (Homo sapiens) (UniProt P51956); settings: Compound concentration 1000.0 nM
T2 sequence (whole entry): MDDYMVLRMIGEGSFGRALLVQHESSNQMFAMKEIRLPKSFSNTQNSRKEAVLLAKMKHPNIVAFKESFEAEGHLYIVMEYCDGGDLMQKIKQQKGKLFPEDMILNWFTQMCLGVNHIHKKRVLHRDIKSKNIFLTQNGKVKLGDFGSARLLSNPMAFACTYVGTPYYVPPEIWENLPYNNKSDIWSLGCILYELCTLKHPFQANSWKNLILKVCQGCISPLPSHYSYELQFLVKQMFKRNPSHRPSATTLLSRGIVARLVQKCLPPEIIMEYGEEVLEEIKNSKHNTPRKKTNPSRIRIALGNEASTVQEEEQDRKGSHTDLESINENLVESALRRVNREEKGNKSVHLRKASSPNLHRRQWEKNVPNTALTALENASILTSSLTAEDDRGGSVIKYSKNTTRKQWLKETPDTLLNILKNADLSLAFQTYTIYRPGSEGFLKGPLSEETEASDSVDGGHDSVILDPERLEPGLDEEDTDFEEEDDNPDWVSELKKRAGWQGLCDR

[15] = biological target: Serine/threonine-protein kinase Nek6 (Homo sapiens) (UniProt Q9HC98); settings: Compound concentration 1000.0 nM
[16] = biological target: Serine/threonine-protein kinase Nek7 (Homo sapiens) (UniProt Q8TDX7); settings: Compound concentration 1000.0 nM
[17] = biological target: 1-phosphatidylinositol 3-phosphate 5-kinase (Homo sapiens) (UniProt Q9Y2I7); settings: Compound concentration 1000.0 nM
[18] = biological target: NT-3 growth factor receptor (Homo sapiens) (UniProt Q16288); settings: Compound concentration 1000.0 nM
[19] = biological target: Serine/threonine-protein kinase WNK1 (Homo sapiens) (UniProt Q9H4A3); settings: Compound concentration 1000.0 nM
[20] = biological target: T3, Tyrosine-protein kinase ZAP-70 (Homo sapiens) (UniProt P43403); settings: Compound concentration 1000.0 nM
T3 sequence (whole entry): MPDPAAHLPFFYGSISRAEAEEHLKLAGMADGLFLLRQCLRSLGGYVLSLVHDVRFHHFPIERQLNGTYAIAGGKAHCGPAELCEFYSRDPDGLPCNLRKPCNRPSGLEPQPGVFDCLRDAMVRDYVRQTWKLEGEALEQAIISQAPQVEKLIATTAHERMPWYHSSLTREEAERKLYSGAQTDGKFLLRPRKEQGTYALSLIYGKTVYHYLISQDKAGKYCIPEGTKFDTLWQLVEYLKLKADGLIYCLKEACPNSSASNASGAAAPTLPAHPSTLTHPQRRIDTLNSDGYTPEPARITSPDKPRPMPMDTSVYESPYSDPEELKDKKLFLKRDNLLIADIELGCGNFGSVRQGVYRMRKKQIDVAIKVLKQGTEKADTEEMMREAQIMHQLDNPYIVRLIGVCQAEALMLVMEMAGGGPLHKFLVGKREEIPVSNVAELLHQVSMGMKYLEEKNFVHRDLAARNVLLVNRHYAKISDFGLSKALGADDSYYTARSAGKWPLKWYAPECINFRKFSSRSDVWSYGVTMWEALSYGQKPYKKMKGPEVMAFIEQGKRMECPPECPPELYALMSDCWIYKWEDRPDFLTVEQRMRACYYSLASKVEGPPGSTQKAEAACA

[21] = biological target: Beta-2 adrenergic receptor (Homo sapiens) (UniProt P07550); settings: Compound concentration 10.0 uM

Sequence of Serine/threonine-protein kinase WNK1 (Homo sapiens) (Q9H4A3 whole entry, looked up): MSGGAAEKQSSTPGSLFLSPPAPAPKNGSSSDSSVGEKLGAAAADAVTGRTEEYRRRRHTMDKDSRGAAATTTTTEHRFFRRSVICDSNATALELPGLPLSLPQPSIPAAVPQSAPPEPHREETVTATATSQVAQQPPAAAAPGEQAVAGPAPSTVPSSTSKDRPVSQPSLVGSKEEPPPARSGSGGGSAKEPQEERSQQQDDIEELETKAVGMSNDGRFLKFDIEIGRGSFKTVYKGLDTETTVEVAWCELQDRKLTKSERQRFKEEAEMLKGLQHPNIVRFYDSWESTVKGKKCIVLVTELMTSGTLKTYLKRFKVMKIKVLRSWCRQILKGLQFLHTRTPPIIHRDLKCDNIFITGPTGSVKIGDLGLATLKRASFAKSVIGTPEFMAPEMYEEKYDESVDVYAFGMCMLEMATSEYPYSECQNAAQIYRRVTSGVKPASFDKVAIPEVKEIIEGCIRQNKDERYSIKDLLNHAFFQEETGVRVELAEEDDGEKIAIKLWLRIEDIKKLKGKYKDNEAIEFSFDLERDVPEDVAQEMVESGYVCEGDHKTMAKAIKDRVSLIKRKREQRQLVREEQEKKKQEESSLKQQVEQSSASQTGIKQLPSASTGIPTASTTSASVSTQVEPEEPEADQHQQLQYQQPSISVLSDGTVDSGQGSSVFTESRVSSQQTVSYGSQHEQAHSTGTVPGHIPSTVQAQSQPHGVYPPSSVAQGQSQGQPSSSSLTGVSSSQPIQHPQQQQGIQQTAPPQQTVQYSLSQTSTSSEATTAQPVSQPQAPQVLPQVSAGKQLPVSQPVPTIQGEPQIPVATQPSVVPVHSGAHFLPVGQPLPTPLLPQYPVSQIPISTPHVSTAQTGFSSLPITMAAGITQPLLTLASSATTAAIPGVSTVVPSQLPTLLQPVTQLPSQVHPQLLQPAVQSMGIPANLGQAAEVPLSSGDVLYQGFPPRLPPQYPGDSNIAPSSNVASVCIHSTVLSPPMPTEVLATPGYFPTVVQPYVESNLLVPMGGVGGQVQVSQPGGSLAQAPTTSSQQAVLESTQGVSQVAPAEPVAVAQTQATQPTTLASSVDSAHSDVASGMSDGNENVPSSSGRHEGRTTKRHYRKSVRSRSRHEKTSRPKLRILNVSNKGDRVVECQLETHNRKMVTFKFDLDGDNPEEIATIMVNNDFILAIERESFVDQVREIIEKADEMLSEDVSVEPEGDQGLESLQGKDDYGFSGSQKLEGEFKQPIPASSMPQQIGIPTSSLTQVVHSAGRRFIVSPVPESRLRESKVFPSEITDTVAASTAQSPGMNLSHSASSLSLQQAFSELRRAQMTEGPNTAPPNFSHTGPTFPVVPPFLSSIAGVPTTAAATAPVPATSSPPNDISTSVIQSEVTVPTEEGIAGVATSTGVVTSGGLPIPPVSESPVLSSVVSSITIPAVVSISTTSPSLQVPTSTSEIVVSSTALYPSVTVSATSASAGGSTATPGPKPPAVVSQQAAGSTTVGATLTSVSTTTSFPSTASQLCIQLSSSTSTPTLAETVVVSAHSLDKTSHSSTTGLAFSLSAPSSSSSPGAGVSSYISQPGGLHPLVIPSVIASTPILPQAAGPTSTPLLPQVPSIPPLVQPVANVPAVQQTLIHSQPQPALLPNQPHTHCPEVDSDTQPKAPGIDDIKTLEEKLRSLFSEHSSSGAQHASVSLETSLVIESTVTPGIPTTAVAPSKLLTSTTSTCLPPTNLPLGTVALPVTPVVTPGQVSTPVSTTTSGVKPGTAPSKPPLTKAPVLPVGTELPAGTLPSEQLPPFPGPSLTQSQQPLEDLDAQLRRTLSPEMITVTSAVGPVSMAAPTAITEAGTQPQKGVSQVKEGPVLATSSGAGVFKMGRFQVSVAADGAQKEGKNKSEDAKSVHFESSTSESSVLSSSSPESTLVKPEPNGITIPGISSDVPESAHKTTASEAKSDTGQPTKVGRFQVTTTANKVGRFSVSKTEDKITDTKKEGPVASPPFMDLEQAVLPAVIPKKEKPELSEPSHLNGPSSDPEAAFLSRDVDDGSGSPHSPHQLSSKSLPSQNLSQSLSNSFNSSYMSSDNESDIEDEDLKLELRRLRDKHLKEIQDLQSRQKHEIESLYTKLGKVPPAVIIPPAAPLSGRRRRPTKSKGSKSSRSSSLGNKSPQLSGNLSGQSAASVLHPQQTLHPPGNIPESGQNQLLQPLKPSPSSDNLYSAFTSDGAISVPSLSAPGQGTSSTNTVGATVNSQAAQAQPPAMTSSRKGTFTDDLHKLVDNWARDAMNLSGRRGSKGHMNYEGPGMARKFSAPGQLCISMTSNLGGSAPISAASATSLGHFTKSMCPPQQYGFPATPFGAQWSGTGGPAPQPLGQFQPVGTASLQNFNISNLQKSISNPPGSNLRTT
Sequence of 1-phosphatidylinositol 3-phosphate 5-kinase (Homo sapiens) (Q9Y2I7 whole entry): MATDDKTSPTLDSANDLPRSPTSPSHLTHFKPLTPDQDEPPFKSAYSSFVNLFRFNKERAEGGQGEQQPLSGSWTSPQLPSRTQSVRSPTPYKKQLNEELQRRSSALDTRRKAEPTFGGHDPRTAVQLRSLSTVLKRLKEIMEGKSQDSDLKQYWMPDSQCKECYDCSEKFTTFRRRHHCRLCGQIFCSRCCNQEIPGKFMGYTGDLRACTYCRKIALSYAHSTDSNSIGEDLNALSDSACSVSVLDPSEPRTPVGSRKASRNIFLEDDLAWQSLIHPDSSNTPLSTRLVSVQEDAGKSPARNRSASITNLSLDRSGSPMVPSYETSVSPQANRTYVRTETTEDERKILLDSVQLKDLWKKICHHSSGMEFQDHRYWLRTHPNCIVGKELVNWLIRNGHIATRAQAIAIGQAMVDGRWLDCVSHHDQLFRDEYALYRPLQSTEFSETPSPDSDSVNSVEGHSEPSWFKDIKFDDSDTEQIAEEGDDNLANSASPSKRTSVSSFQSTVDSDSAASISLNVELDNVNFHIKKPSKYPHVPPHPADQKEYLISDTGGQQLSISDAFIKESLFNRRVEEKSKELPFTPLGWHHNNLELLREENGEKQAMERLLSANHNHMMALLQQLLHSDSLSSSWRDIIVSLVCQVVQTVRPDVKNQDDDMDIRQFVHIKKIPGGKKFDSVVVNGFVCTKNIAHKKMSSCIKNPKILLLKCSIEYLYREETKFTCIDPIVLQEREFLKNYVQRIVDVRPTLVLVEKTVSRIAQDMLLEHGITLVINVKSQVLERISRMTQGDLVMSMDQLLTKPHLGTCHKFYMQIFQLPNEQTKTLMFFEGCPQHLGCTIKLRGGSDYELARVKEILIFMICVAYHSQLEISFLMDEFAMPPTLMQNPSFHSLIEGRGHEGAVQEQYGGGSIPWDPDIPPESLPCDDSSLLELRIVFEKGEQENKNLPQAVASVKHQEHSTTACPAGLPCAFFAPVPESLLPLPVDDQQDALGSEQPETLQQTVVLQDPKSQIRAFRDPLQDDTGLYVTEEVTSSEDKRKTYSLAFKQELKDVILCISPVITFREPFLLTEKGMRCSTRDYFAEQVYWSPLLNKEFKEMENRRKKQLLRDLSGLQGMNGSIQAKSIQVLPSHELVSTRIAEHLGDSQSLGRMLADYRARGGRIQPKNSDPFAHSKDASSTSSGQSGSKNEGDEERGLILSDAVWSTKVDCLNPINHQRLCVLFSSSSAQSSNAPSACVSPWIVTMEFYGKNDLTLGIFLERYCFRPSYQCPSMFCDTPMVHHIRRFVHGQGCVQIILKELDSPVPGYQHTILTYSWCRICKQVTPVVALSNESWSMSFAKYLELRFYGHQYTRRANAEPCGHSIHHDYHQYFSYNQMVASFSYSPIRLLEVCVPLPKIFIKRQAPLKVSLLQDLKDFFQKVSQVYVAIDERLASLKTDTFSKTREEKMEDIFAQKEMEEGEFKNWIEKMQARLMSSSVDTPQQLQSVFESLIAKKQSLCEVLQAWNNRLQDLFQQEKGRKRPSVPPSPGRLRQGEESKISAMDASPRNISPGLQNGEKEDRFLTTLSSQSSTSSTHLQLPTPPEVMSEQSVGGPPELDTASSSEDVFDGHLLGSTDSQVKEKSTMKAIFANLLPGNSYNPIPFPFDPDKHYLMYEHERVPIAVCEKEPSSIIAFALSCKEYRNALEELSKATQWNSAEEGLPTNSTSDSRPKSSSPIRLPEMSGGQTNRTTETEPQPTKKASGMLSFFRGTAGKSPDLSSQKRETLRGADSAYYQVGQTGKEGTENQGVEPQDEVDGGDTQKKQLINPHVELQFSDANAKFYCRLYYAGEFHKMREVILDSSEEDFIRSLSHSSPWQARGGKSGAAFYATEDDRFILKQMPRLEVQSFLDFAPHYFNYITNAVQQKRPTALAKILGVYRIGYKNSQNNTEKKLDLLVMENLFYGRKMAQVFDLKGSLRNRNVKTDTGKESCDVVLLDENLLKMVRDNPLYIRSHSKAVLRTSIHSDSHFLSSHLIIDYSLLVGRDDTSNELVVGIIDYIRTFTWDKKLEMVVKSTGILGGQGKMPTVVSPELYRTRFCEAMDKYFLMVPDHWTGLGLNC
Sequence of Calcium/calmodulin-dependent protein kinase type II subunit gamma (Homo sapiens) (Q13555 whole entry): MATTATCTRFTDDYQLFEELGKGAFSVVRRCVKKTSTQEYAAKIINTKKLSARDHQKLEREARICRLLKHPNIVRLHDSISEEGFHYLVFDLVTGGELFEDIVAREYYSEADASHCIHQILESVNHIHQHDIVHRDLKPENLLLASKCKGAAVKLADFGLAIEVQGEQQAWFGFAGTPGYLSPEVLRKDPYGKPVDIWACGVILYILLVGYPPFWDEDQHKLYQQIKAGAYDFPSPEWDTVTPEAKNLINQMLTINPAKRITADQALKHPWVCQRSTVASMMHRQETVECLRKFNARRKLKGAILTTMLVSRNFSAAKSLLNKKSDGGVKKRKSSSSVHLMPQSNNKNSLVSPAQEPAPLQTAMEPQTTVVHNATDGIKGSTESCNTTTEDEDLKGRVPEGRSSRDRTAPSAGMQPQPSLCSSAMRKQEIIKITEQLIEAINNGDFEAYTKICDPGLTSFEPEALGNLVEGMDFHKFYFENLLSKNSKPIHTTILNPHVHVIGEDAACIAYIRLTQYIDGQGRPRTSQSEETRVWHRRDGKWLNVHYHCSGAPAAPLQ

Row | SMILES | IC50 (SN12C) | residual activity [1] | residual activity [2] | residual activity [3] | residual activity [4] | residual activity [5] | residual activity [6] | residual activity [7] | residual activity [8] | residual activity [9] | residual activity [10] | residual activity [11] | residual activity [12] | residual activity [13] | residual activity [14] | residual activity [15] | residual activity [16] | residual activity [17] | residual activity [18] | residual activity [19] | further results
1 | Cc1nc(C2CCN(C(=O)c3ccc(OC(F)(F)F)cc3N)CC2)c2ncc(N3CCN(C)CC3)cc2n1 [BAY-693] | 29.3 µM (not active) | 100% | 96% | 86% | 100% | 100% | 100% | 92% | 22% | 96% | 100% | 100% | 100% | 100% | 89% | 100% | 100% | 100% | 97% | 94% | residual activity [20]: 100%; inhibition [21]: -5.65%
2 | CN1CCN(c2cnc3c(C4CCN(C(=O)c5ccc(OC(F)(F)F)cc5N)CC4)ncnc3c2)CC1 [BAY-885] | > 30 µM (not active) | 98% | 100% | 79% | 100% | 100% | 100% | 100% | 0.1% | 100% | 100% | 99% | 100% | 100% | 97% | 92% | 100% | 98% | 100% | 100% | residual activity [20]: 100%; inhibition [21]: -4.21%
